Columns and labels:
Assay type in all cases: biochemical
Human recombinant HDAC4 [1] = molecular target: T1, Human recombinant HDAC4 (Homo sapiens (Human), UniProt P56524); test: Earlier version of HDAC4 assay; settings: 10 μM substrate, test concentrations 0.003 μM to 100 μM
Experimental: Description of Earlier Version of HDAC4 Assay
Human recombinant HDAC4 was expressed in full length form (aa 2-1084) in Sf9 insect cells (obtained from ATCC) using baculovirus generated with Bac-to-Bac system (Invitrogen). Test compounds were serially diluted to reach final test concentrations from 0.003 μM to 100 μM. HDAC4 and test compounds were incubated in 25 mM Tris buffer pH 8.0 containing 137 mM NaCl, 2.7 mM KCl, 1 mM MgCl2 and 0.05% (w/v) bovine serum albumine for 2 hours at room temperature in presence of 10 μM of acetyl-Gly-Ala-Lys(ε-trifluoroacetyl)-AMC (AMC=7-amino-4-methyl coumarin) in a final volume of 200 μl. Control wells with HDAC4 only (positive control) and without HDAC4 (negative control) were included on the microplate. Bovine trypsin (10 μl of a 0.4 mg/ml solution) was added and the plate incubated for additional 15 minutes at room temperature. The plate was placed in a fluorescence microplate reader, and read at an excitation wavelength of 360 nm and an emission wavelength of 450 nm with a cut-off filter of 435 nm. Fluorescence values for all wells containing HDAC4 (positive control and wells with test compound) were corrected by subtracting negative control fluorescence values, and IC50 values were calculated by fitting the dose-response curves to a 4-parameter logistic function.

[2] = molecular target: Human recombinant full length HDAC6 (Homo sapiens (Human), UniProt Q9UBN7); test: HDAC6 assay (Test 3), acetyl-Gly-Ala-Lys(acetyl)-AMC substrate; settings: 5 μM substrate, 2 hours at room temperature
Chain of Human recombinant full length HDAC6 (Q9UBN7 whole entry, the tested form may be a part): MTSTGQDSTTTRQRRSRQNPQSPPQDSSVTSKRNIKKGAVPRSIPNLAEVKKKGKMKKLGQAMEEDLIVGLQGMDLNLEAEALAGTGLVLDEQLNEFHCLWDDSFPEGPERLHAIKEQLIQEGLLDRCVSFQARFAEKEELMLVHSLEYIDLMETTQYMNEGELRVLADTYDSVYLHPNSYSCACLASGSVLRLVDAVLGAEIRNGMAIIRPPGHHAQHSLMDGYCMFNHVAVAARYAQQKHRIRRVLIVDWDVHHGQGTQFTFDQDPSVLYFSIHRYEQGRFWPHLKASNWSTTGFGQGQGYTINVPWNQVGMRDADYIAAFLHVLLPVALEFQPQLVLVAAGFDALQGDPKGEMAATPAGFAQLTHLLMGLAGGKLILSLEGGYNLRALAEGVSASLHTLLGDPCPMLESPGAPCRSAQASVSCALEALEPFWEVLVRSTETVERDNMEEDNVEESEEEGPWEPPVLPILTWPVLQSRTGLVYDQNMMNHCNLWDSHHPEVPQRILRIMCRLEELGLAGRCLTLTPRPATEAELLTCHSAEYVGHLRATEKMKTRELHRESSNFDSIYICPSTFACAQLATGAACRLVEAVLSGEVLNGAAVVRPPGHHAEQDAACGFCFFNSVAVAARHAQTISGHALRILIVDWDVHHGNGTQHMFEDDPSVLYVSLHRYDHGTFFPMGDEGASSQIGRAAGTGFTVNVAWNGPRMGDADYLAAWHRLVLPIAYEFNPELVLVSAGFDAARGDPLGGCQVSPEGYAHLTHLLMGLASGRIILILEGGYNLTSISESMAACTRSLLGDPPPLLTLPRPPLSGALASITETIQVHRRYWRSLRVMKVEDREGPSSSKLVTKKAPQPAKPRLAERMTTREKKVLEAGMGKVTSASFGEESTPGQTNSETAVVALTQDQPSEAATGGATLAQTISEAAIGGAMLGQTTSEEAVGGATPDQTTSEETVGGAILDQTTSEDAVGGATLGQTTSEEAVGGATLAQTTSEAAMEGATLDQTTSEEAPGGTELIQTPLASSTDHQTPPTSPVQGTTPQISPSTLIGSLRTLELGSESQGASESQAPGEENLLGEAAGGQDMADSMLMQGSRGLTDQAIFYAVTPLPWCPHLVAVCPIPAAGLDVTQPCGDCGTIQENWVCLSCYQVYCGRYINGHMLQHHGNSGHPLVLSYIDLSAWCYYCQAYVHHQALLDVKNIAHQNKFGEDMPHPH
Experimental: (§1) Human recombinant HDAC4 was expressed in full length form (aa 2-1084) in Sf9 insect cells (obtained from ATCC) using baculovirus generated with Bac-to-Bac system (Invitrogen). Test compounds were serially diluted to reach final test concentrations from 0.000128 μM to 10 μM. HDAC4 and test compounds were incubated in 25 mM Tris buffer pH 8.0 containing 137 mM NaCl, 2.7 mM KCl, 1 mM MgCl2, 0.05% (w/v) bovine serum albumine and 0.005% (v/v) Triton-X-100 for 2 hours at room temperature in presence of 5 μM of acetyl-Gly-Ala-Lys(ε-trifluoroacetyl)-AMC (AMC=7-amino-4-methyl coumarin) in a final volume of 9 μl. Control wells with HDAC4 only (positive control) and without HDAC4 (negative control) were included on the microplate. Bovine trypsin (4.5 μl of a 300 nM solution) was added and the plate incubated for additional 15 minutes at room temperature. The plate was placed in a fluorescence microplate reader, and read at an excitation wavelength of 360 nm and an emission wavelength of 450 nm with a 10 nm bandpath. Fluorescence values for all wells containing HDAC4 (positive control and wells with test compound) were corrected by subtracting negative control fluorescence values, and IC50 values were calculated by fitting the dose-response curves to a 4-parameter logistic function.
Test 3: HDAC6 Assay Description
A similar assay procedure as described in Test 1 was used for HDAC6. Human recombinant full length HDAC6 expressed in a baculovirus expression system was purchased from BPS BioSciences (San Diego, Calif., U.S.A.). The substrate used in the […] assay was 5 μM of acetyl-Gly-Ala-Lys (acetyl)-AMC.

[3] = molecular target: Human recombinant full length HDAC1 (Homo sapiens (Human), UniProt Q13547); test: HDAC1 assay (Test 2), acetyl-Gly-Ala-Lys(acetyl)-AMC substrate; settings: 5 μM substrate, 2 hours at room temperature
Chain of Human recombinant full length HDAC1 (Q13547 whole entry): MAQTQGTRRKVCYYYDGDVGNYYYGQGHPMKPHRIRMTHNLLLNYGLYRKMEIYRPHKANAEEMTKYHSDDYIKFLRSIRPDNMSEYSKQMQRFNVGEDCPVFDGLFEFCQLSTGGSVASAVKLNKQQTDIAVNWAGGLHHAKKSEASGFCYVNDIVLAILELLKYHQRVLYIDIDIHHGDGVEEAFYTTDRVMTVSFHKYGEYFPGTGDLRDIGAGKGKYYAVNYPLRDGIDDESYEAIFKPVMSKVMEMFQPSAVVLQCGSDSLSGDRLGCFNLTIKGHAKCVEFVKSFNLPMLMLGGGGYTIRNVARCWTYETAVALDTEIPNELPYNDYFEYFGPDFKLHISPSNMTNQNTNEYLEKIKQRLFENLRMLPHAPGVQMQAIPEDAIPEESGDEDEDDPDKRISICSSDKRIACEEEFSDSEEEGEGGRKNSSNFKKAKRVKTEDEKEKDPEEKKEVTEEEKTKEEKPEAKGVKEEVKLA
Experimental: as §1
Test 2: HDAC1 Assay Description
A similar assay procedure as described in Test 1 was used for HDAC1. Human recombinant full length HDAC1 expressed in a baculovirus expression system was purchased from BPS BioSciences (San Diego, Calif., U.S.A.). The substrate used in the […] assay was 5 μM of acetyl-Gly-Ala-Lys(acetyl)-AMC.

Human recombinant HDAC4 [4] = molecular target: T1, Human recombinant HDAC4; test: HDAC4 assay (Test 1), fluorescence, acetyl-Gly-Ala-Lys(ε-trifluoroacetyl)-AMC substrate; settings: 5 μM substrate, 2 hours at room temperature
Experimental: Test 1: HDAC4 Assay Description
as §1

T1 sequence (P56524 2-1084): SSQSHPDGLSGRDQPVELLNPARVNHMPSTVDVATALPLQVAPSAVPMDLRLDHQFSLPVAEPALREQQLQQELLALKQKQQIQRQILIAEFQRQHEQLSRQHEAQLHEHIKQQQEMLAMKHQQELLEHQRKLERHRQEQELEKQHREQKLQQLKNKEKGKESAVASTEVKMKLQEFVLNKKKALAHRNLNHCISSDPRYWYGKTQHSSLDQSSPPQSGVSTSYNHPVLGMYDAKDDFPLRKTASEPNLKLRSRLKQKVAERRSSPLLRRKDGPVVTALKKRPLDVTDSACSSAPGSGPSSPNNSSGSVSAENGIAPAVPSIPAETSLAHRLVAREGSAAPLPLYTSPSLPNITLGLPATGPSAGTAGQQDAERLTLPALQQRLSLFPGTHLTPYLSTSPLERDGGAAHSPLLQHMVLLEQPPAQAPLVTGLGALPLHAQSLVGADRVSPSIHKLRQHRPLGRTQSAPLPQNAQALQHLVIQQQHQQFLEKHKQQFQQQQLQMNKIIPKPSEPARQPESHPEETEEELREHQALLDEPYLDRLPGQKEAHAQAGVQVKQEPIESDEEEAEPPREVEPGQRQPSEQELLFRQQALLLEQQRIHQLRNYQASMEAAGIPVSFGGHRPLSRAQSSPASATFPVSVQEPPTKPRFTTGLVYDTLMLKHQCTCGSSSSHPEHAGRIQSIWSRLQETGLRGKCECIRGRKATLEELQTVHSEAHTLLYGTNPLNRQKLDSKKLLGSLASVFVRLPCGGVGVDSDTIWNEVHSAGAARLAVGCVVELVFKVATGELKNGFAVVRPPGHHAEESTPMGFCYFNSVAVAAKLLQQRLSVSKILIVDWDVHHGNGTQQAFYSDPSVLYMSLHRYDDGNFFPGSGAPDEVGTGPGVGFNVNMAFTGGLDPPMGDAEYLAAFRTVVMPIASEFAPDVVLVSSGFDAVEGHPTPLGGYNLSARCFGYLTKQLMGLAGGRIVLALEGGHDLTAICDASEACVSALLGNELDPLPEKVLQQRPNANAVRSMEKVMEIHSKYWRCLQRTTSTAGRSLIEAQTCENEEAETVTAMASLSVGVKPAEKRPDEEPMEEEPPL

SMILES	IC50 (Human recombinant HDAC4 [1]) [µM]	IC50 [2] [µM]	IC50 [3] [µM]	IC50 (Human recombinant HDAC4 [4]) [µM]
C[C@@H](NC(=O)c1cnc(-c2noc(C(F)(F)F)n2)nc1)c1ccccc1 [(R)—N-(1-phenylethyl)-2-(5-(trifluoromethyl)-1,2,4-oxadiazol-3-yl)pyrimidine-5-carboxamide]	> 30			
Cc1ccc(CNc2ncc(-c3noc(C(F)(F)F)n3)cn2)cn1 [Example 8, N-((6-methylpyridin-3-yl)methyl)-5-(5-(trifluoromethyl)-1,2,4-oxadiazol-3-yl)pyrimidin-2-amine]		0.25	3	0.025
FC(F)(F)c1nc(-c2cnc(NCc3cccnc3)c(Cl)c2)no1 [Example 37, 3-chloro-N-(pyridin-3-ylmethyl)-5-(5-(trifluoromethyl)-1,2,4-oxadiazol-3-yl)pyridin-2-amine]		2	1.2	0.019
C[C@H](CN(C)C)NC(=O)c1ccc(-c2noc(C(F)(F)F)n2)cn1 [Example 24, (R)—N-(1-(dimethylamino)propan-2-yl)-5-(5-(trifluoromethyl)-1,2,4-oxadiazol-3-yl)picolinamide]		> 10	> 10	0.99
FC(F)(F)c1nc(-c2ccc(NCc3ccncc3)nc2)no1 [Example 31, N-(pyridin-4-ylmethyl)-5-(5-(trifluoromethyl)-1,2,4-oxadiazol-3-yl)pyridin-2-amine]		1.6	4.5	0.041
C[C@@H](Nc1ccc(-c2noc(C(F)(F)F)n2)nn1)c1ccncc1 [Example 45, (R)—N-(1-(Pyridin-4-yl)ethyl)-6-(5-(trifluoromethyl)-1,2,4-oxadiazol-3-yl)pyridazin-3-amine]		0.61	3.2	0.065
Cc1ccc(CNc2ccc(-c3noc(C(F)(F)F)n3)cn2)cn1 [Example 32, N-((6-methylpyridin-3-yl)methyl)-5-(5-(trifluoromethyl)-1,2,4-oxadiazol-3-yl)pyridin-2-amine]		0.77	2.4	0.063
CC(Nc1ncc(-c2noc(C(F)(F)F)n2)cn1)c1ccccc1 (centres unmarked) [Example 7, N-(1-phenylethyl)-5-(5-(trifluoromethyl)-1,2,4-oxadiazol-3-yl)pyrimidin-2-amine]		> 0.4	> 10	0.12
C[C@H](CN(C)Cc1ccccc1)NC(=O)c1ccc(-c2noc(C(F)(F)F)n2)nc1 [Example 21, (R)—N-(1-(benzyl(methyl)amino)propan-2-yl)-6-(5-(trifluoromethyl)-1,2,4-oxadiazol-3-yl)nicotinamide]		> 10	> 10	0.018
CC(CN(C)C)NC(=O)c1ccc(-c2noc(C(F)(F)F)n2)nc1 (centres unmarked) [Example 19, N-(1-(dimethylamino)propan-2-yl)-6-(5-(trifluoromethyl)-1,2,4-oxadiazol-3-yl)nicotinamide]		> 10	1.7	0.35
CC[C@@H](Nc1ncc(-c2noc(C(F)(F)F)n2)cn1)c1ccccc1 [Example 13, (R)—N-(1-phenylpropyl)-5-(5-(trifluoromethyl)-1,2,4-oxadiazol-3-yl)pyrimidin-2-amine]		0.14	1.7	0.022
C[C@@H](Nc1ncc(-c2noc(C(F)(F)F)n2)cn1)c1ccccc1 [Example 12, (R)—N-(1-phenylethyl)-5-(5-(trifluoromethyl)-1,2,4-oxadiazol-3-yl)pyrimidin-2-amine]		0.34	3.5	0.049
N#Cc1ccc(C(=O)Nc2cnc(-c3noc(C(F)(F)F)n3)cn2)cc1 [Example 2, 4-Cyano-N-(5-(5-(trifluoromethyl)-1,2,4-oxadiazol-3-yl)pyrazin-2-yl)benzamide]		2.6	> 10	1.4
CN(Cc1ccncc1)c1ncc(-c2noc(C(F)(F)F)n2)cn1 [Example 3, N-methyl-N-(pyridin-4-ylmethyl)-5-(5-(trifluoromethyl)-1,2,4-oxadiazol-3-yl)pyrimidin-2-amine]		6.7	3.2	0.039
C[C@H](Nc1cnc(-c2noc(C(F)(F)F)n2)nc1)c1ccccc1 [Example 42, (S)—N-(1-Phenylethyl)-2-(5-(trifluoromethyl)-1,2,4-oxadiazol-3-yl)pyrimidin-5-amine]		1.9	> 10	5
Cc1cccc(CNc2ncc(-c3noc(C(F)(F)F)n3)cn2)n1 [Example 11, N-((6-methylpyridin-2-yl)methyl)-5-(5-(trifluoromethyl)-1,2,4-oxadiazol-3-yl)pyrimidin-2-amine]		0.55	0.51	0.24
O=C(NCc1ccncc1)c1cnc(-c2noc(C(F)(F)F)n2)nc1 [N-(pyridin-4-ylmethyl)-2-(5-(trifluoromethyl)-1,2,4-oxadiazol-3-yl)pyrimidine-5-carboxamide]	> 30			
FC(F)(F)c1nc(-c2ccc(NCc3cccnc3)nc2)no1 [Example 30, N-(pyridin-3-ylmethyl)-5-(5-(trifluoromethyl)-1,2,4-oxadiazol-3-yl)pyridin-2-amine]		1.8	6.1	0.079

— patent US9670193B2 (Novartis AG, priority 2011, dated 2017)
